Values of other authors, collected in patent publication US20210369601A1, “Pharmaceutical Formulation” (Klaria Pharma Holding AB, priority 2018, published 2021).

Settings: aqueous solution

pH of acceptable stability: < 5.5 | pH of optimal stability: 3-4
SMILES: CNCC(O)c1ccc(O)c(O)c1 (centres unmarked) [adrenaline]
